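Five compound concentrations were applied to cells in 96-well plates for 48 hours; endpoints were derived by simple linear interpolation of the resulting dose-response curve. Abbreviation: GI50, concentration required for 50% inhibition of growth. The concentration for full growth arrest is given as TGI.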

Among the test systems are DU-145 prostate; HCT-116 colon; HOP-92 NSCLC; MCF7 breast; MOLT-4 leukemia; NCI-H226 lung; NCI-H23 lung; OVCAR-4 ovarian; SK-MEL-28 melanoma; SNB-75 CNS.
What all share (experiment): NCI anticancer screen, dose series, 48 h

Consider `OCCNc1nc(NCCO)nc(Nc2ccc(C3=NN(c4cc(Cl)cc(Cl)c4)C(c4ccc(Cl)cc4)C3)cc2)n1` (stereo not given), for which the GI50 in the experiment on DU-145 prostate was 1.67 µM; in the experiment on HCT-116 colon it was 1.59 µM; in the experiment with HOP-92 NSCLC it was 2.04 µM; in the experiment with MCF7 breast, 1.42 µM; with MOLT-4 leukemia, 1.52 µM; with NCI-H226 lung, 2.45 µM. Besides, the GI50 with NCI-H23 lung is 1.72 µM; in the experiment on OVCAR-4 ovarian it was 2 µM; with SK-MEL-28 melanoma it was 1.61 µM; in the experiment with SNB-75 CNS it was 1.51 µM. Besides, the TGI in the experiment with DU-145 prostate was 3.22 µM; in the experiment with HCT-116 colon it was 3.05 µM; in the experiment on HOP-92 NSCLC, 4.42 µM; in the experiment on MCF7 breast it was 3.31 µM; with MOLT-4 leukemia, 4.02 µM; with NCI-H226 lung it was 5.48 µM. For the same compound, the TGI in the experiment on NCI-H23 lung was determined as 3.4 µM; in the experiment with OVCAR-4 ovarian, 5.02 µM; in the experiment on SK-MEL-28 melanoma, 3.02 µM; with SNB-75 CNS, 3.06 µM.

With `O=C(O)C(/C=C/c1ccco1)=N\Nc1nc(-c2ccc(Cl)cc2)cs1`, the GI50 was 15.8 µM in the experiment with DU-145 prostate; 11.6 µM in the experiment on HCT-116 colon; 10.1 µM with HOP-92 NSCLC; 10.2 µM with MCF7 breast; 8.62 µM with MOLT-4 leukemia; 9.41 µM with NCI-H226 lung. The GI50 with NCI-H23 lung was 15.2 µM; with OVCAR-4 ovarian it was 9.41 µM; with SK-MEL-28 melanoma it was 25.7 µM; in the experiment on SNB-75 CNS it was 23.1 µM. Moreover, the TGI is above 50 µM in the experiment with DU-145 prostate; above 50 µM with HCT-116 colon; 49.4 µM in the experiment on HOP-92 NSCLC; 40.6 µM with MCF7 breast; above 50 µM in the experiment on MOLT-4 leukemia; 25.4 µM in the experiment with NCI-H226 lung. The TGI in the experiment on NCI-H23 lung, in the experiment with OVCAR-4 ovarian, in the experiment with SK-MEL-28 melanoma and with SNB-75 CNS was above 50 µM in each case.

Regarding `CC[C@@]1(O)C(=O)NCc2c1cc1n(c2=O)Cc2cc3cc4c(cc3nc2-1)OCO4`, the GI50 in the experiment on DU-145 prostate is 0.13 µM; with HCT-116 colon, 0.883 µM; in the experiment with HOP-92 NSCLC it was 1.22 µM; in the experiment with MCF7 breast it was 0.217 µM; in the experiment on MOLT-4 leukemia, 0.118 µM; with NCI-H226 lung, 2 µM. Moreover, the GI50 was 0.798 µM with NCI-H23 lung, 22.5 µM in the experiment on OVCAR-4 ovarian, 45.1 µM in the experiment on SK-MEL-28 melanoma and 0.5 µM with SNB-75 CNS. The TGI with DU-145 prostate is 2.02 µM; in the experiment on HCT-116 colon, 46 µM; with HOP-92 NSCLC, above 26.9 µM; in the experiment on MCF7 breast it was above 100 µM; in the experiment with MOLT-4 leukemia it was 0.414 µM; with NCI-H226 lung it was above 85.1 µM. For the same compound, the TGI in the experiment with NCI-H23 lung was above 13.2 µM; with OVCAR-4 ovarian, 97.8 µM; in the experiment on SK-MEL-28 melanoma it was above 100 µM; in the experiment with SNB-75 CNS, 3.57 µM.

For the compound `COc1ccc(/C=C/C(=O)c2ccc(Nc3ncnc4ccccc34)cc2)cc1OC`, the GI50 was 8.16 µM in the experiment with DU-145 prostate; 0.547 µM in the experiment on HCT-116 colon; 2.05 µM in the experiment on HOP-92 NSCLC; 2.43 µM in the experiment on MCF7 breast; 5.68 µM in the experiment with MOLT-4 leukemia; 3.53 µM in the experiment on NCI-H226 lung. The GI50 in the experiment on NCI-H23 lung was 4.69 µM; in the experiment with OVCAR-4 ovarian, 3.26 µM; in the experiment on SK-MEL-28 melanoma, 13.7 µM; with SNB-75 CNS it was 5.19 µM. Also, the TGI is above 100 µM in the experiment with DU-145 prostate; 16.8 µM in the experiment with HCT-116 colon; 52.7 µM in the experiment with HOP-92 NSCLC; 14.3 µM in the experiment on MCF7 breast; 23.5 µM with MOLT-4 leukemia; 31.9 µM in the experiment on NCI-H226 lung. The TGI is above 100 µM in the experiment with NCI-H23 lung, 27 µM in the experiment on OVCAR-4 ovarian, 93.5 µM in the experiment with SK-MEL-28 melanoma and 48.3 µM with SNB-75 CNS.

For the origin of these results see PubChem BioAssay (NCI).
